Here are results for two compounds from US20230149407A1, “Methods of Treating Coronavirus Disease 2019” (priority 2020, published 2023).

Entries after “also recorded” stand apart in the source; their conditions may differ.

One data set relates to C-reactive protein (CRP). The data set can be described thus: expected reduction in CRP (exposure response model). The class given is in vivo, human.
Data set [1] has as its system moderately to severely active RA. The data set can be described thus: 12-week study in patients with moderately to severely active RA. Type of data set: in vivo, human. To be noted: doses of 200 and 400 mg as modified release (MR) tablets.
The test system of the next data set is inflammatory monocytes. As to the kind of experiment: levels of inflammatory monocytes. Set-up: species or system human. To be noted: in vivo.
Data set [2] relates to human bronchial epithelial cells. As to the kind of experiment: chemokine production from human bronchial epithelial cells. Type of data set: cell-based.
For data set [3], the system named is blood transcriptional programs for type I interferons and IL-6. The data set can be described thus: blood transcriptional programs in healthy volunteers and RA patients. Type of data set: in vivo, human.
The test system of a further data set is LPS-induced TNFα. The data set can be described thus: acute model of endotoxin-induced inflammation in rats. The class given is in vivo, rat. The note with it: administered orally.
Data set [4] concerns imiquimod (a TLR7 agonist)-induced skin inflammation. As to the kind of experiment: 5-day murine model of imiquimod-induced skin inflammation. Type of data set: in vivo. To be noted: 5-day murine imiquimod model.
Data set [5] in a line: renal excretion of PF-06650833. To be noted: in vivo.
Another data set has as its system hsCRP. As to the kind of experiment: hsCRP in healthy adults. Type of data set: in vivo, human.
Data set [6] deals with collagen-induced arthritis. The data set can be described thus: rat collagen-induced arthritis model. Type of data set: in vivo.
Data set [7] concerns IFNα, IFNβ, IFNγ, TNFα, IL-1, IL-2, IL4, IL-6, IL-7, IL-9, IL-10, IL-12, IL13, IL-15, IL-21, IL-23, and IL-27. To be noted: cited from earlier work.
Another data set deals with IL-6. The data set can be described thus: expected suppression of IL-6 at clinical tofacitinib doses. Type of data set: in vivo, human.
The subject of another data set is IL-6/STAT3 signaling. As to the kind of experiment: in-vitro IL-6/STAT3 signaling. The class given is cell-based. The note with it: both at 5 and 10 mg.

For the compound `CC[C@@H]1[C@H](F)C(=O)N[C@@H]1COc1nccc2cc(C(N)=O)c(OC)cc12` [PF-06650833, 1-(((2S,3S,4S)-3-Ethyl-4-fluoro-5-oxopyrrolidin-2-yl)methoxy)-7-methoxyisoquinoline-6-carboxamide], the “reduction in CRP” value in the data set on C-reactive protein (CRP) (200 mg IR suspension Q6H) and with C-reactive protein (CRP) (400 mg MR tablets QD (or 200 mg IR suspension Q6H)) was 50-60% throughout. In addition, in data set [1], the “efficacy in 12-week study in RA patients” value is recorded as “demonstrated efficacy”. In the data set with inflammatory monocytes, the “levels of inflammatory monocytes” value was “reduces levels”. In data set [2], the “chemokine production, IL-1β-stimulated release of CXCL8 and IL-6” value was “reduces”. Besides, the “blood transcriptional programs for type I interferons and IL-6” value in [3] is reported as “dose-dependently inhibits”. Besides, the “LPS-induced TNFα” value in the data set on LPS-induced TNFα was “inhibit LPS-induced TNFα in a dose-dependent manner”. For the same compound, in data set [4], the ear swelling entry is “inhibit ear swelling in a dose-dependent manner”. Moreover, the renal excretion entry in data set [5] was “low”. For the same compound, the “levels of hsCRP” value in the data set with hsCRP was “suppression of CRP; also recorded: dose-dependently reduced”. In addition, in data set [6], the hind paw swelling entry was “significantly reduced”.
Regarding `C[C@@H]1CCN(C(=O)CC#N)C[C@@H]1N(C)c1ncnc2[nH]ccc12` [tofacitinib, 3-((3R,4R)-4-Methyl-3-(methyl(7H-pyrrolo[2,3-d]pyrimidin-4-yl)amino)piperidin-1-yl)-3-oxopropanenitrile], in data set [7], the “levels of IFNα, IFNβ, IFNγ, TNFα, IL-1, IL-2, IL4, IL-6, IL-7, IL-9, IL-10, IL-12, IL13, IL-15, IL-21, IL-23, and IL-27” value was “reduces levels”. In addition, the “predicted suppression of IL-6” value in the data set on IL-6 (5 mg BID dose) is “approximately 60%”. In the data set on IL-6 (10 mg BID dose, may be expected), the “suppression of IL-6” value is listed as “approximately 80%”. For the same compound, the IL-6/STAT3 signaling result in the data set with IL-6/STAT3 signaling was “inhibits”.
